Here are results for six compounds from patent publication US20240317780A1, “RADIOPHARMACEUTICAL SOMATOSTATIN RECEPTOR LIGANDS AND PRECURSORS THEREOF” (Technische Universität München, priority 2021, published 2024).

Read-outs that look alike come from different tables or passages of the source. Where a SMILES comes first, the peptide text is derived from it. Bridges are numbered along the chain shown (N, C = ends). [ ]: non-standard residue; d: D form. The star is where a group is joined. ξ: configuration not given here. X1 = CC(C)(C)[Si](F)(c1ccc(C[N+](C)(C)CC(=O)*)cc1)C(C)(C)C; DO3AM = NC(=O)CN1CCN(CC(N)=O)CCN(CC(=O)*)CCN(CC(N)=O)CC1; ξW = NC(Cc1c[nH]c2ccccc12)C(=O)O; dOrn = NCCC[C@@H](N)C(=O)O; ξF = NC(Cc1ccccc1)C(=O)O; ξT = CC(O)C(N)C(=O)O; ξDap = NCC(N)C(=O)O; ξC = NC(CS)C(=O)O

As usually defined, the IC50 is the concentration at which inhibition is half-maximal.

One data set has as its target T1, SST2 (Homo sapiens, UniProt P30874).
T1 construct: expressed in transfected cells; host or cells: CHO (Chinese hamster ovary) cells
Put plainly: Determination of IC50: competitive binding against [125I]TOC on SST2-transfected CHO cells. Particulars: [125I]TOC reference radioligand, 60 min room temperature. Here is the method:
The SST2-transfected CHO cells were cultivated in Dulbecco's Modified Eagle Medium/Nutrient Mixture F-12 (DMEM/F-12) with Glutamax-I (1:1) (Gibco), supplemented with 10% fetal calf serum (FCS) and maintained at 37° C. in a humidified 5% CO2 atmosphere. […] After removal of the culture medium, the cells were treated once with 300 μL of HBSS-B (Hank's balanced salt solution, Biochrom, Berlin, Germany, with addition of 1% bovine serum albumin (BSA)) and left with 200 μL HBSS-B. Next, 25 μL per well of solutions, containing either HBSS-B (control) or the respective ligand in increasing concentration (10^−10-10^−4 M in HBSS-B, were added with subsequent addition of 25 μL of
[^125I]TOC ([^125I]Tyr^3-Octreotide) (1.0 nM) in HBSS-B. Each concentration is investigated in triplicate. After 60 min incubation at room temperature, the experiment was terminated by removal of the assay medium and consecutive rinsing with 300 μL of cold PBS. The media of both steps were combined in one fraction and represent the amount of unbound radioligand.
Afterwards, the cells were lysed with 300 μL of 1 M NaOH and united with the 300 μL 1 M NaOH of the following wash step. Quantification of bound and unbound radioligand was accomplished in a γ-counter.

A short description of data set [1]: Biodistribution of 18F-labeled SST2 ligands in AR42J tumor-bearing mice. The following applies: female, CD1 nu/nu, mouse, iv, total radioactivity, 1 h post injection. The format is in vivo. How it is done:
All animal experiments were conducted in accordance with general animal welfare regulations in Germany and the institutional guidelines for the care and use of animals. To establish tumor xenografts, AR42J cells (5×10^6 cells/100 μL) were suspended in Dulbecco modified Eagle medium/Nutrition Mixture F-12 with Glutamax-1 (1:1) and inoculated subcutaneously onto the right shoulder of 8 weeks old, female CD1 nu/nu mice (Charles River, Sulzfeld, Germany). Mice were used for experiments when tumors had grown to a diameter of 5-9 mm (7-15 days after inoculation).
Approximately 0.5-2.0 MBq (0.05-0.25 nmol) of the ^18F-labeled SST2-ligands were injected into the tail vein of AR42J tumor-bearing female CD1 nu/nu mice and sacrificed after 1 h post injection (n=3-5). Selected organs were removed, weighted and measured in a γ-counter.
The Tables 4, 5, and 6 summarize the results of the in vivo mouse experiments. For all biodistribution studies, female CD1 nu/nu mice with AR42J tumor xenografts, were used and sacrificed 1 h post injection.

Setting [2] is: AR42J tumor, AR42J tumor, tail vein, read-out: Tumor % ID/g ± SD.
Where [3] appears, read: adrenal glands, tail vein, read-out: Adrenal glands % ID/g ± SD.
[4] abbreviates: blood, tail vein, read-out: Blood % ID/g ± SD.
The mark [5] stands for this setting: bone, tail vein, read-out: Bone % ID/g ± SD.
Where [6] appears, read: heart, tail vein, read-out: Heart % ID/g ± SD.
Setting [7] is: intestine, tail vein, read-out: Intestine % ID/g ± SD.
Where [8] appears, read: kidneys, tail vein, read-out: Kidneys % ID/g ± SD.
The mark [9] stands for this setting: liver, tail vein, read-out: Liver % ID/g ± SD.
The mark [10] stands for this setting: lung, tail vein, read-out: Lung % ID/g ± SD.
Where [11] appears, read: muscle, tail vein, read-out: Muscle % ID/g ± SD.
The mark [12] stands for this setting: pancreas, tail vein, read-out: Pancreas % ID/g ± SD.
Setting [13] is: spleen, tail vein, read-out: Spleen % ID/g ± SD.
The mark [14] stands for this setting: stomach, tail vein, read-out: Stomach % ID/g ± SD.

T1 sequence (P30874 whole entry, species assumed): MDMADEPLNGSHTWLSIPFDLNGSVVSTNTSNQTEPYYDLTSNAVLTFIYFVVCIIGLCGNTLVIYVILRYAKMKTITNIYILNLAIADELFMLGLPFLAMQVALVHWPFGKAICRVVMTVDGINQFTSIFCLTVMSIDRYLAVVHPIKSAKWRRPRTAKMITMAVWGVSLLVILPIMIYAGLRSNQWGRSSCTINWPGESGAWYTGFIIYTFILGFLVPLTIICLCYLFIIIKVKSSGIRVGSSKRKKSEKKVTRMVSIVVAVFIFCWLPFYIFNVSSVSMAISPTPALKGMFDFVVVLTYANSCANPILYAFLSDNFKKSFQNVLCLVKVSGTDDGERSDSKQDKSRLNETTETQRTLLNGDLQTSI

Compound `C[C@@H](O)[C@H](NC(=O)C1CSSCC(NC(=O)C(Cc2ccccc2)NC(=O)CNC(=O)CNC(=O)[C@@H](CC(=O)O)NC(=O)C(CC(=O)O)NC(=O)[C@@H](CNC(=O)CN2CCN(CC(=O)O)CCN(CC(=O)O)CCN(CC(=O)O)CC2)NC(=O)C(CN)NC(=O)c2ccc([Si](F)(C(C)(C)C)C(C)(C)C)cc2)C(=O)N[C@@H](Cc2ccc(O)cc2)C(=O)NC(Cc2c[nH]c3ccccc23)C(=O)N[C@@H](CCCCN)C(=O)N[C@@H]([C@@H](C)O)C(=O)N1)C(=O)O` (stereo partly drawn) (natGa complex, metal not drawn) [[Ga]19] came in with an IC50 at SST2 of 11.2 ± 1.04 nM. For the same compound, the tissue uptake at 1 h in data set [1] (setting [2]) is 36.3 ± 4.54 %ID/g; in data set [1] (setting [3]) it was 2.56 ± 0.21 %ID/g; in data set [1] (setting [4]), 2.24 ± 0.3 %ID/g; in data set [1] (setting [5]), 1.96 ± 0.38 %ID/g; in data set [1] (setting [6]), 0.88 ± 0.11 %ID/g; in data set [1] (setting [7]), 1.39 ± 0.24 %ID/g. The tissue uptake at 1 h turned out to be 131 ± 26.7 %ID/g in data set [1] (setting [8]); 2.47 ± 0.14 %ID/g in data set [1] (setting [9]); 4.84 ± 0.98 %ID/g in data set [1] (setting [10]); 0.27 ± 0.04 %ID/g in data set [1] (setting [11]); 12.5 ± 1.87 %ID/g in data set [1] (setting [12]); 0.93 ± 0.15 %ID/g in data set [1] (setting [13]). In data set [1] (setting [14]), the tissue uptake at 1 h stood at 7.99 ± 2.08 %ID/g.
At SST2, `C[C@@H](O)[C@H](NC(=O)C1CSSCC(NC(=O)C(Cc2ccccc2)NC(=O)CNC(=O)CNC(=O)[C@@H](CC(=O)O)NC(=O)C(CC(=O)O)NC(=O)[C@@H](CNC(=O)CN2CCN(CC(=O)O)CCN(CC(=O)O)CCN(CC(=O)O)CC2)NC(=O)C[N+](C)(C)Cc2ccc([Si](F)(C(C)(C)C)C(C)(C)C)cc2)C(=O)N[C@@H](Cc2ccc(O)cc2)C(=O)NC(Cc2c[nH]c3ccccc23)C(=O)N[C@@H](CCCCN)C(=O)N[C@@H]([C@@H](C)O)C(=O)N1)C(=O)O` (stereo partly drawn) (natGa complex, metal not drawn) [[Ga]24] registered a half-maximal inhibitory concentration (IC50) of 9.48 ± 1.96 nM. The tissue uptake at 1 h worked out at 23.9 ± 4.1 %ID/g in data set [1] (setting [2]); 6.1 ± 0.02 %ID/g in data set [1] (AR42J tumor, AR42J tumor, Blocking study, read-out: Tumor % ID/g ± SD); 1.52 ± 0.46 %ID/g in data set [1] (setting [3]); 0.54 ± 0.05 %ID/g in data set [1] (adrenal glands, Blocking study, read-out: Adrenal glands % ID/g ± SD); 0.66 ± 0.32 %ID/g in data set [1] (setting [4]); 1.24 ± 0.61 %ID/g in data set [1] (blood, Blocking study, read-out: Blood % ID/g ± SD). The tissue uptake at 1 h is 1.32 ± 0.19 %ID/g in data set [1] (setting [5]); 0.77 ± 0.07 %ID/g in data set [1] (bone, Blocking study, read-out: Bone % ID/g ± SD); 0.34 ± 0.09 %ID/g in data set [1] (setting [6]); 0.53 %ID/g in data set [1] (heart, Blocking study, read-out: Heart % ID/g ± SD); 1.41 ± 0.19 %ID/g in data set [1] (setting [7]); 0.71 ± 0.04 %ID/g in data set [1] (intestine, Blocking study, read-out: Intestine % ID/g ± SD). Also, the tissue uptake at 1 h in data set [1] (setting [8]) was determined as 13.6 ± 3.58 %ID/g; in data set [1] (kidneys, Blocking study, read-out: Kidneys % ID/g ± SD), 18.2 ± 2.03 %ID/g; in data set [1] (setting [9]) it was 1.05 ± 0.22 %ID/g; in data set [1] (liver, Blocking study, read-out: Liver % ID/g ± SD), 1.82 ± 0.22 %ID/g; in data set [1] (setting [10]), 2.33 ± 0.1 %ID/g; in data set [1] (lung, Blocking study, read-out: Lung % ID/g ± SD), 1.36 ± 0.13 %ID/g. Moreover, the tissue uptake at 1 h in data set [1] (setting [11]) was 0.09 ± 0.04 %ID/g; in data set [1] (muscle, Blocking study, read-out: Muscle % ID/g ± SD), 0.21 ± 0.01 %ID/g; in data set [1] (setting [12]), 9.28 ± 0.57 %ID/g; in data set [1] (pancreas, Blocking study, read-out: Pancreas % ID/g ± SD) it was 1.07 ± 0.02 %ID/g; in data set [1] (setting [13]), 0.45 ± 0.05 %ID/g; in data set [1] (spleen, Blocking study, read-out: Spleen % ID/g ± SD) it was 0.33 %ID/g. Besides, the tissue uptake at 1 h stood at 4.95 ± 0.35 %ID/g in data set [1] (setting [14]) and 1.01 ± 0.06 %ID/g in data set [1] (stomach, Blocking study, read-out: Stomach % ID/g ± SD).
Consider `C[C@@H](O)[C@H](NC(=O)C1CSSCC(NC(=O)C(Cc2ccccc2)NC(=O)CNC(=O)CNC(=O)CNC(=O)C(CC(=O)O)NC(=O)[C@@H](CC(=O)O)NC(=O)C(CNC(=O)CN2CCN(CC(=O)O)CCN(CC(=O)O)CCN(CC(=O)O)CC2)NC(=O)[C@@H](CN)NC(=O)C[N+](C)(C)Cc2ccc([Si](F)(C(C)(C)C)C(C)(C)C)cc2)C(=O)N[C@@H](Cc2ccc(O)cc2)C(=O)NC(Cc2c[nH]c3ccccc23)C(=O)N[C@@H](CCCCN)C(=O)N[C@@H]([C@@H](C)O)C(=O)N1)C(=O)O` (stereo partly drawn) (natLu complex, metal not drawn) [[Lu]51], for which, at SST2, the IC50 came to 3.09 ± 0.16 nM.
Take `C[C@@H](O)[C@H](NC(=O)C1CSSCC(NC(=O)C(Cc2ccccc2)NC(=O)CNC(=O)CNC(=O)CNC(=O)C(CC(=O)O)NC(=O)[C@@H](CC(=O)O)NC(=O)C(CNC(=O)CN2CCN(CC(=O)O)CCN(CC(=O)O)CCN(CC(=O)O)CC2)NC(=O)[C@@H](CN)NC(=O)CNC(=O)C[N+](C)(C)Cc2ccc([Si](F)(C(C)(C)C)C(C)(C)C)cc2)C(=O)N[C@@H](Cc2ccc(O)cc2)C(=O)NC(Cc2c[nH]c3ccccc23)C(=O)N[C@@H](CCCCN)C(=O)N[C@@H]([C@@H](C)O)C(=O)N1)C(=O)O` (stereo partly drawn) (natLu complex, metal not drawn) [[Lu]52]: on SST2, the IC50 is 3.51 ± 0.41 nM.
On to `C[C@@H](O)[C@H](NC(=O)C1CSSCC(NC(=O)C(Cc2ccccc2)NC(=O)CNC(=O)CNC(=O)CNC(=O)C(CC(=O)O)NC(=O)[C@@H](CC(=O)O)NC(=O)C(CNC(=O)CN2CCN(CC(=O)O)CCN(CC(=O)O)CCN(CC(=O)O)CC2)NC(=O)[C@@H](CN)NC(=O)CNC(=O)CNC(=O)C[N+](C)(C)Cc2ccc([Si](F)(C(C)(C)C)C(C)(C)C)cc2)C(=O)N[C@@H](Cc2ccc(O)cc2)C(=O)NC(Cc2c[nH]c3ccccc23)C(=O)N[C@@H](CCCCN)C(=O)N[C@@H]([C@@H](C)O)C(=O)N1)C(=O)O` (stereo partly drawn) (natLu complex, metal not drawn) [[Lu]53], for which, at SST2, the IC50 is 3.36 ± 0.27 nM.
Same read-out and setting: next, `CC(O)C(NC(=O)C1CSSCC(NC(=O)C(Cc2ccccc2)NC(=O)CNC(=O)CNC(=O)CNC(=O)[C@@H](CCCN)NC(=O)[C@@H](CCCN)NC(=O)C(CNC(=O)CN2CCN(CC(N)=O)CCN(CC(N)=O)CCN(CC(N)=O)CC2)NC(=O)C[N+](C)(C)Cc2ccc([Si](F)(C(C)(C)C)C(C)(C)C)cc2)C(=O)N[C@@H](Cc2ccc(O)cc2)C(=O)NC(Cc2c[nH]c3ccccc23)C(=O)N[C@@H](CCCCN)C(=O)N[C@@H]([C@@H](C)O)C(=O)N1)C(=O)O` (stereo partly drawn) [[Pb]61] (X1-[ξDap](DO3AM)[dOrn][dOrn]GGG[ξF][ξC]Y[ξW]KT[ξC][ξT]-OH; disulfide 8-13): 7.96 ± 0.28 nM.
